The record followed here is patent US11866430B2, “Naphthyridinone compounds useful as T cell activators” (priority 2018, dated 2024).

SMILES strings stand for the structures.

As a reminder, the IC50 is the concentration that gives 50% inhibition.

Experiment [1] deals with human DGKα (Homo sapiens (Human), UniProt P23743). Description: biochemical. The note with it: detergent/lipid micelle substrate; read-out: DGKα IC50. In a few lines: (§1)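 Full-length human DGKζ (and DGKα), C-terminal His-tagged, Sf9-expressed, with phosphatidylserine/DAG micelles in 50 mM octyl glucoside; buffer 50 mM MOPS pH 7.5, 100 mM NaCl, 10 mM MgCl2, 1 μM CaCl2, 1 mM DTT.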
Sequence of human DGKα (P23743 other isoform, or with tags, fused parts or gaps): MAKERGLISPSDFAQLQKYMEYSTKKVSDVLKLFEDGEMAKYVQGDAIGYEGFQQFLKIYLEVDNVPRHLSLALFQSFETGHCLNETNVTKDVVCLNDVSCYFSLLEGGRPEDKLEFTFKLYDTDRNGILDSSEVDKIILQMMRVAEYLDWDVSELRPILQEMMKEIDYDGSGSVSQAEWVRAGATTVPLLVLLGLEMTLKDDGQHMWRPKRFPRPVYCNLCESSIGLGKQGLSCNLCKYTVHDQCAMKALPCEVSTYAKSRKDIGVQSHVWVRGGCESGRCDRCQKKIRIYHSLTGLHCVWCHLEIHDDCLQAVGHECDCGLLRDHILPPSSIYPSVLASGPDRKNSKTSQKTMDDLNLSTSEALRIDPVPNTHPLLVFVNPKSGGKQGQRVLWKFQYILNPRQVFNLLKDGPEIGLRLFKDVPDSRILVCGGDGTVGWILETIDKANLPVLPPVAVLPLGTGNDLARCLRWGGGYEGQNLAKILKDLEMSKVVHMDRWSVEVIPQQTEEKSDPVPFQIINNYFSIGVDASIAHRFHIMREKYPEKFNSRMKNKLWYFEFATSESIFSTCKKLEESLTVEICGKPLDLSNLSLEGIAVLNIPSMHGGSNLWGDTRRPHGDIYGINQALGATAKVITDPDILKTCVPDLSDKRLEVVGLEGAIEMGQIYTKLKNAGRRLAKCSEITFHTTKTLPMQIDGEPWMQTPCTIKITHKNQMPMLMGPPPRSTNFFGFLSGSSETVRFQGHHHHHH

For experiment [2], the target named is human DGKζ (Homo sapiens (Human), UniProt Q13574). Description: DGKζ assay (detergent/lipid micelle substrate). The note with it: detergent/lipid micelle substrate; read-out: DGKζ IC50. In kind it is biochemical. The gist of the method: as §1
Sequence of human DGKζ (Q13574 other isoform, or with tags, fused parts or gaps): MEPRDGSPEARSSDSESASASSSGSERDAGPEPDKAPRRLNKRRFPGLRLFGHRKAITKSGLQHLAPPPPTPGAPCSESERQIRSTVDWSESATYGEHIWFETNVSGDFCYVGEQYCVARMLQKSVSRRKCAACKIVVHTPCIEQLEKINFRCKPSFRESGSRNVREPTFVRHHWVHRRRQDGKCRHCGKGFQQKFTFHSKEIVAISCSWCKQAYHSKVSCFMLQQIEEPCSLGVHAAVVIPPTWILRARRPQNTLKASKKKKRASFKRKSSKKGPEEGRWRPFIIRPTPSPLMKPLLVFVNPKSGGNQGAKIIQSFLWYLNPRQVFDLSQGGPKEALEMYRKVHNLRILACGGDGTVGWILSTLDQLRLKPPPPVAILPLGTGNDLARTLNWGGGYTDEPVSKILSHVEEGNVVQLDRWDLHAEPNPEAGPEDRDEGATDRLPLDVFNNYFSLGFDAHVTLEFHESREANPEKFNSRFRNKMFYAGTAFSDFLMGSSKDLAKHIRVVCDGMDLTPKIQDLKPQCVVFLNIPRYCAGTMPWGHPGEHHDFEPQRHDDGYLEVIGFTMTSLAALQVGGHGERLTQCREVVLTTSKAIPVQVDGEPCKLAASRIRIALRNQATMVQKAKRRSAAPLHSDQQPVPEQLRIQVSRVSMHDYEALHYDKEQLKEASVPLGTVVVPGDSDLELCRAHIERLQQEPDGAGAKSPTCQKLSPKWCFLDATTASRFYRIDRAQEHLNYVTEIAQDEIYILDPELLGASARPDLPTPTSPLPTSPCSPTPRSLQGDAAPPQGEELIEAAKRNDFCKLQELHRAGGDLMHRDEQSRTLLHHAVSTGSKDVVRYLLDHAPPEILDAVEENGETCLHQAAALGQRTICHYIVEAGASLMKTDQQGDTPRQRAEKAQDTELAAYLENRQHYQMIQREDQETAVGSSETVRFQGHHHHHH
Experiment [3] has as its system pre-activated CD4 T cells and Raji cells. Briefly: Raji CD4 T Cell IL2 Assay. In kind it is cell-based. The note with it: Homo sapiens, Raji.

Consider `Cn1c(=O)c([N+](=O)[O-])c(N2CCN(C(c3ccc(F)cc3)c3ccccc3O)CC2)c2nc(Br)ccc21` (stereo not drawn) [Example 70, 6-bromo-4-(4-((4-fluorophenyl)(2-hydroxyphenyl)methyl)piperazin-1-yl)-1-methyl-3-nitro-1,5-naphthyridin-2(1H)-one], for which the IC50 in experiment [1] was determined as 0.13 µM; in experiment [2], 3.3 µM; in experiment [3], 0.0089 µM.

Regarding `Cc1ccccc1C(c1ccccc1O)N1CCN(c2c([N+](=O)[O-])c(=O)n(C)c3ccc(Br)nc23)CC1` (stereo not drawn) [Example 73, 6-bromo-4-(4-((2-hydroxyphenyl)(o-tolyl)methyl)piperazin-1-yl)-1-methyl-3-nitro-1,5-naphthyridin-2(1H)-one], the IC50 came out at 0.9 µM in experiment [1], 2.1 µM in experiment [2] and 0.026 µM in experiment [3].

Take `COCCn1c(=O)c(C#N)c(N2CCN(C(c3ccc(F)cc3)c3ccccc3O)CC2)c2nc(Br)ccc21` (stereo not drawn) [Example 117, 6-bromo-4-(4-((4-fluorophenyl)(2-hydroxyphenyl)methyl)piperazin-1-yl)-1-(2-methoxyethyl)-2-oxo-1,2-dihydro-1,5-naphthyridine-3-carbonitrile]: the figures for the IC50 in experiment [1], in experiment [2] and in experiment [3] were 46 µM, 21 µM and 0.77 µM, respectively.

With `Cn1c(=O)c([N+](=O)[O-])c(N2CCN(C(c3ccc(F)cc3)c3ccc(F)cc3O)CC2)c2nc(C#N)ccc21` (stereo not drawn) [Example 122, 8-(4-((4-fluoro-2-hydroxyphenyl)(4-fluorophenyl)methyl)piperazin-1-yl)-5-methyl-7-nitro-6-oxo-5,6-dihydro-1,5-naphthyridine-2-carbonitrile], the figures for the IC50 in experiment [1], in experiment [2] and in experiment [3] were 1 µM, 0.72 µM and 0.011 µM, respectively.

On to `COCCn1c(=O)c([N+](=O)[O-])c(N2CCN(C(c3ccc(F)cc3)c3ccc(F)cc3)CC2)c2nc(C#N)ccc21` [Example 147, 8-(4-(bis(4-fluorophenyl)methyl)piperazin-yl)-5-(2-methoxyethyl)-7-nitro-6-oxo-5,6-dihydro-1,5-naphthyridine-2-carbonitrile], for which the IC50 in experiment [1] was 76 µM; in experiment [2], 3.6 µM; in experiment [3] it was 0.3 µM.

Regarding `N#CCn1c(=O)c([N+](=O)[O-])c(N2CCN(C(c3ccc(F)cc3)c3ccc(F)cc3)CC2)c2nc(C#N)ccc21` [Example 152, 8-(4-(bis(4-fluorophenyl)methyl)piperazin-1-yl)-5-(cyanomethyl)-7-nitro-6-oxo-5,6-dihydro-1,5-naphthyridine-2-carbonitrile], the IC50 in experiment [1] is 150 µM; in experiment [2], 3.9 µM; in experiment [3] it was 0.15 µM.

With `N#CCn1c(=O)c(C#N)c(N2CCN(C(c3ccc(F)cc3)c3ccc(F)cc3)CC2)c2nc(Br)ccc21` [Example 153, 4-(4-(bis(4-fluorophenyl)methyl)piperazin-1-yl)-6-bromo-1-(cyanomethyl)-2-oxo-1,2-dihydro-1,5-naphthyridine-3-carbonitrile], the IC50 was 180 µM in experiment [1], 76 µM in experiment [2] and 0.71 µM in experiment [3].

In the case of `N#CCn1c(=O)c(C#N)c(N2CCN(C(c3ccc(F)cc3)c3ccccc3O)CC2)c2nc(Br)ccc21` (stereo not drawn) [Example 157, 6-bromo-1-(cyanomethyl)-4-(4-((4-fluorophenyl)(2-hydroxyphenyl)methyl)piperazin-1-yl)-2-oxo-1,2-dihydro-1,5-naphthyridine-3-carbonitrile], the IC50 is 53 µM in experiment [1], 26 µM in experiment [2] and 0.22 µM in experiment [3].

On to `N#Cc1c(N2CCN(C(c3ccc(F)cc3)c3ccc(F)cc3)CC2)c2nc(Br)ccc2n(CC2CC2)c1=O` [Example 161, 4-(4-(bis(4-fluorophenyl)methyl)piperazin-1-yl)-6-bromo-1-(cyclopropylmethyl)-2-oxo-1,2-dihydro-1,5-naphthyridine-3-carbonitrile], for which the IC50 was more than 240 µM in experiment [1], more than 81 µM in experiment [2] and 5.7 µM in experiment [3].

As to `O=c1c([N+](=O)[O-])c(N2CCN(C(c3ccccc3)c3ccccc3)CC2)c2ncccc2n1CCC=C(F)F` [Example 186, 4-(4-benzhydrylpiperazin-1-yl)-1-(4,4-difluorobut-3-en-1-yl)-3-nitro-1,5-naphthyridin-2(1H)-one], the results for the IC50 in experiment [1], in experiment [2] and in experiment [3] were more than 240 µM, more than 240 µM and 3 µM, respectively.

Turning to `COCCOCCCn1c(=O)c([N+](=O)[O-])c(N2CCN(C(c3ccccc3)c3ccccc3)CC2)c2ncccc21` [Example 189, 4-(4-benzhydrylpiperazin-1-yl)-1-(3-(2-methoxyethoxy)propyl)-3-nitro-1,5-naphthyridin-2(1H)-one], the IC50 in experiment [1] was 130 µM; in experiment [2] it was more than 240 µM; in experiment [3] it was 7.3 µM.

`COCCCn1c(=O)c([N+](=O)[O-])c(N2CCN(C(c3ccccc3)c3ccccc3)CC2)c2ncccc21` [Example 190, 4-(4-benzhydrylpiperazin-1-yl)-1-(3-methoxypropyl)-3-nitro-1,5-naphthyridin-2(1H)-one]: the results for the IC50 in experiment [1], in experiment [2] and in experiment [3] were 58 µM, more than 240 µM and 4.2 µM, respectively.

In the case of `Cn1c(=O)c(C#N)c(N2CCN(Cc3ccccc3O)CC2)c2nc(Cl)ccc21` [Example 198, 6-chloro-4-(4-(2-hydroxybenzyl)piperazin-1-yl)-1-methyl-2-oxo-1,2-dihydro-1,5-naphthyridine-3-carbonitrile], the results for the IC50 in experiment [1], in experiment [2] and in experiment [3] were 0.074 µM, 150 µM and 0.5 µM, respectively.

Consider `CCN(C)c1cccc(CN2CCN(c3c(C#N)c(=O)n(C)c4ccc(Cl)nc34)CC2)c1` [Example 199, 6-chloro-4-(4-(3-(ethyl(methyl)amino)benzyl)piperazin-1-yl)-1-methyl-2-oxo-1,2-dihydro-1,5-naphthyridine-3-carbonitrile], for which the values for the IC50 in experiment [1], in experiment [2] and in experiment [3] were 0.48 µM, more than 240 µM and 0.38 µM, respectively.

Take `C=CCOc1cc(F)cc2c1C(N1CCN(c3c(C#N)c(=O)n(C)c4ccc(Cl)nc34)CC1)CC2` (stereo not drawn) [Example 200, 4-(4-(7-(allyloxy)-5-fluoro-2,3-dihydro-1H-inden-1-yl)piperazin-1-yl)-6-chloro-1-methyl-2-oxo-1,2-dihydro-1,5-naphthyridine-3-carbonitrile]: the IC50 is 24 µM in experiment [1], more than 240 µM in experiment [2] and 1.6 µM in experiment [3].

Turning to `CCc1ccc2c(n1)c(N1CCN(C(c3ccccc3)c3ccccc3)CC1)c(C#N)c(=O)n2C` [Example 202, 4-(4-benzhydrylpiperazin-1-yl)-6-ethyl-1-methy-2-oxo-1,2-dihydro-1,5-naphthyridine-3-carbonitrile], the results for the IC50 in experiment [1], in experiment [2] and in experiment [3] were 31 µM, 12 µM and 0.4 µM, respectively.

`Cn1c(=O)c(C#N)c(N2CCN(Cc3ccccc3NC(=O)c3ccccc3)CC2)c2nc(Br)ccc21` [Example 213, N-(2-((4-(6-bromo-3-cyano-1-methyl-2-oxo-1,2-dihydro-1,5-naphthyridin-4-yl)piperazin-1-yl)methyl)phenyl)benzamide]: the IC50 was 3.1 µM in experiment [1], more than 240 µM in experiment [2] and 0.71 µM in experiment [3].
